Values of other authors, collected in article PMC7700871 (ACS chemical biology, 2020).

Target: Abl-1 (Homo sapiens, UniProt P00519)
Settings: cited from earlier work

Abl-1, sequence (P00519 whole entry, species assumed): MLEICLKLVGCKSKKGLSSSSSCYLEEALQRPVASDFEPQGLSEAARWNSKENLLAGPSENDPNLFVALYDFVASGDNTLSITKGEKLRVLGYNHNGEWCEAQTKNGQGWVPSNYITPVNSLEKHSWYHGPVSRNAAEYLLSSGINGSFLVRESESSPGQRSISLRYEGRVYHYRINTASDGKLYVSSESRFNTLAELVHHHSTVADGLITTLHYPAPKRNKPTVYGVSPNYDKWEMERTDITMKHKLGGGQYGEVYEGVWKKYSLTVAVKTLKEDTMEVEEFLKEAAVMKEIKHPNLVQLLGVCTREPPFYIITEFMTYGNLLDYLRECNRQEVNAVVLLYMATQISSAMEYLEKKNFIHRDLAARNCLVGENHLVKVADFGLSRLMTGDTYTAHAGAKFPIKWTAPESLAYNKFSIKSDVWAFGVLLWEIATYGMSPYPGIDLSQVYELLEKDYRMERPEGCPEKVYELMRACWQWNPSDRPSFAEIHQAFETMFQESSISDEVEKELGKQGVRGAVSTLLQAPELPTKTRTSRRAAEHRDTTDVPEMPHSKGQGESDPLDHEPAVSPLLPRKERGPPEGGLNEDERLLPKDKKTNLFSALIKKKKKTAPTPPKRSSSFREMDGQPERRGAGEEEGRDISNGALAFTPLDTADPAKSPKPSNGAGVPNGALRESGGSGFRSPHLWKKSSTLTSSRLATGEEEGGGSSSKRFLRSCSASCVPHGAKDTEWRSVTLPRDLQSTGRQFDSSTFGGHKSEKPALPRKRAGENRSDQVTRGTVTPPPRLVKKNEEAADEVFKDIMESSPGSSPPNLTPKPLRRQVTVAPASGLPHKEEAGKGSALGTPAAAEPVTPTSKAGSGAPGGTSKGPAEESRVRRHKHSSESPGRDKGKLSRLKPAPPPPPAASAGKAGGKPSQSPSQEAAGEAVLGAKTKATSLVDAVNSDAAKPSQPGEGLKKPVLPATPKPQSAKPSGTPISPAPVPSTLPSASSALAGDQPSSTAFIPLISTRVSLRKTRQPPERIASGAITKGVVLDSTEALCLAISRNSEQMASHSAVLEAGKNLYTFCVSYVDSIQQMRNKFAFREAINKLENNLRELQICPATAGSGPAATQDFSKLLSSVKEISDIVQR

For Cc1ccc(NC(=O)c2ccc(CN3CC[C@H](N(C)C)C3)c(C(F)(F)F)c2)cc1Nc1nccc(-c2cncnc2)n1 [bafetinib], the “global conformation of Abl-1's SH3-SH2-CD module” value is listed as “promote an open global conformation”.
